# In the supplement of paper PMC10307832:
# Tests used:
# Test in all cases: relative viability (nuclei count vs DMSO), 5 days (fraction); higher = more cells survive
# Palbociclib = compound: CC(=O)c1c(C)c2cnc(Nc3ccc(N4CCNCC4)cn3)nc2n(C2CCCC2)c1=O [Palbociclib]
# Outline: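 MetaXpress counted nuclei in 4× images of lung cancer cell lines that had been fixed, permeabilised and Hoechst-stained in one step. Before that, cells in 1536-well plates were kept overnight at 37 °C, pinned with five √10-spaced library-drug doses on vehicle-anchored plates, and cultured 5 days without medium change. Viability takes treated-well nuclei over vehicle-well nuclei and uses the median across plates. Plates were accepted only at control CV below 25% and at least one doubling.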
# Palbociclib + Trametinib = compound: CC(=O)c1c(C)c2cnc(Nc3ccc(N4CCNCC4)cn3)nc2n(C2CCCC2)c1=O [Palbociclib] + CC(=O)Nc1cccc(-n2c(=O)n(C3CC3)c(=O)c3c(Nc4ccc(I)cc4F)n(C)c(=O)c(C)c32)c1 [Trametinib] (partner 0.02 µM)
# Outline: (§1)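 Values are medians from duplicate plates. Each reflects relative viability, defined as the nuclei count of treated wells over that of vehicle wells. Lung cancer cell lines in 1536-well plates were pin-tool dosed one day after seeding with one drug alone or with a fixed anchor-drug dose plus five library-drug doses (not always all listed) in √10 steps, then fixed, stained and imaged at 4× after 5 days.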
# Palbociclib + Luminespib = compound: CC(=O)c1c(C)c2cnc(Nc3ccc(N4CCNCC4)cn3)nc2n(C2CCCC2)c1=O [Palbociclib] + CCNC(=O)c1noc(-c2cc(C(C)C)c(O)cc2O)c1-c1ccc(CN2CCOCC2)cc1 [Luminespib] (partner 0.01 µM)
# Outline: as §1
# Palbociclib + OSI-027 = compound: CC(=O)c1c(C)c2cnc(Nc3ccc(N4CCNCC4)cn3)nc2n(C2CCCC2)c1=O [Palbociclib] + COc1cccc2cc(-c3nc([C@H]4CC[C@H](C(=O)O)CC4)n4ncnc(N)c34)[nH]c12 [OSI-027] (partner 0.5 µM)
# Outline: as §1
# Palbociclib + Tozasertib = compound: CC(=O)c1c(C)c2cnc(Nc3ccc(N4CCNCC4)cn3)nc2n(C2CCCC2)c1=O [Palbociclib] + Cc1cc(Nc2cc(N3CCN(C)CC3)nc(Sc3ccc(NC(=O)C4CC4)cc3)n2)n[nH]1 [Tozasertib] (partner 0.1 µM)
# Outline: as §1
# Palbociclib + Dasatinib = compound: CC(=O)c1c(C)c2cnc(Nc3ccc(N4CCNCC4)cn3)nc2n(C2CCCC2)c1=O [Palbociclib] + Cc1nc(Nc2ncc(C(=O)Nc3c(C)cccc3Cl)s2)cc(N2CCN(CCO)CC2)n1 [Dasatinib] (partner 0.075 µM)
# Outline: as §1
# Palbociclib + Phenformin = compound: CC(=O)c1c(C)c2cnc(Nc3ccc(N4CCNCC4)cn3)nc2n(C2CCCC2)c1=O [Palbociclib] + N=C(N)NC(=N)NCCc1ccccc1 [Phenformin] (partner 250 µM)
# Outline: as §1
# Palbociclib + AZD7762 = compound: CC(=O)c1c(C)c2cnc(Nc3ccc(N4CCNCC4)cn3)nc2n(C2CCCC2)c1=O [Palbociclib] + NC(=O)Nc1cc(-c2cccc(F)c2)sc1C(=O)N[C@H]1CCCNC1 [AZD7762] (partner 0.2 µM)
# Outline: as §1
# Palbociclib + Pemetrexed = compound: CC(=O)c1c(C)c2cnc(Nc3ccc(N4CCNCC4)cn3)nc2n(C2CCCC2)c1=O [Palbociclib] + Nc1nc2[nH]cc(CCc3ccc(C(=O)N[C@@H](CCC(=O)O)C(=O)O)cc3)c2c(=O)[nH]1 [Pemetrexed] (partner 0.2 µM)
# Outline: as §1
# Palbociclib + Decitabine = compound: CC(=O)c1c(C)c2cnc(Nc3ccc(N4CCNCC4)cn3)nc2n(C2CCCC2)c1=O [Palbociclib] + Nc1ncn([C@H]2C[C@H](O)[C@@H](CO)O2)c(=O)n1 [Decitabine] (partner 2 µM)
# Outline: as §1
# Palbociclib + Vorinostat = compound: CC(=O)c1c(C)c2cnc(Nc3ccc(N4CCNCC4)cn3)nc2n(C2CCCC2)c1=O [Palbociclib] + O=C(CCCCCCC(=O)Nc1ccccc1)NO [Vorinostat] (partner 1 µM)
# Outline: as §1
# Palbociclib + Olaparib = compound: CC(=O)c1c(C)c2cnc(Nc3ccc(N4CCNCC4)cn3)nc2n(C2CCCC2)c1=O [Palbociclib] + O=C(c1cc(Cc2n[nH]c(=O)c3ccccc23)ccc1F)N1CCN(C(=O)C2CC2)CC1 [Olaparib] (partner 8 µM)
# Outline: as §1
# Palbociclib + Foretinib = compound: CC(=O)c1c(C)c2cnc(Nc3ccc(N4CCNCC4)cn3)nc2n(C2CCCC2)c1=O [Palbociclib] + COc1cc2c(Oc3ccc(NC(=O)C4(C(=O)Nc5ccc(F)cc5)CC4)cc3F)ccnc2cc1OCCCN1CCOCC1 [Foretinib] (partner 0.25 µM)
# Outline: as §1
cell line,measurement,setting,value
NCI-H522,relative viability,Palbociclib; 0.01 µM,1.15
same,relative viability,Palbociclib; 0.03162 µM,0.616
same,relative viability,Palbociclib; 0.1 µM,0.949
same,relative viability,Palbociclib; 0.3162 µM,0.915
same,relative viability,"Palbociclib; 0.5 µM, anchor plate",1.02
same,relative viability,Palbociclib; 1 µM,0.879
same,relative viability,Palbociclib + Trametinib; first compound 0.01 µM,0.818
same,relative viability,Palbociclib + Trametinib; first compound 0.03162 µM,0.576
same,relative viability,Palbociclib + Trametinib; first compound 0.1 µM,0.776
same,relative viability,Palbociclib + Trametinib; first compound 0.3162 µM,0.797
same,relative viability,Palbociclib + Trametinib; first compound 1 µM,0.853
same,relative viability,Palbociclib + Luminespib; first compound 0.01 µM,1.2
same,relative viability,Palbociclib + Luminespib; first compound 0.1 µM,1.19
same,relative viability,Palbociclib + Luminespib; first compound 0.3162 µM,1.19
same,relative viability,Palbociclib + Luminespib; first compound 1 µM,1.18
same,relative viability,Palbociclib + OSI-027; first compound 0.01 µM,0.772
same,relative viability,Palbociclib + OSI-027; first compound 0.03162 µM,0.606
same,relative viability,Palbociclib + OSI-027; first compound 0.1 µM,0.777
same,relative viability,Palbociclib + OSI-027; first compound 0.3162 µM,0.765
same,relative viability,Palbociclib + OSI-027; first compound 1 µM,0.765
same,relative viability,Palbociclib + Tozasertib; first compound 0.01 µM,0.604
same,relative viability,Palbociclib + Tozasertib; first compound 0.03162 µM,0.517
same,relative viability,Palbociclib + Tozasertib; first compound 0.1 µM,0.573
same,relative viability,Palbociclib + Tozasertib; first compound 0.3162 µM,0.469
same,relative viability,Palbociclib + Tozasertib; first compound 1 µM,0.539
same,relative viability,Palbociclib + Dasatinib; first compound 0.01 µM,0.896
same,relative viability,Palbociclib + Dasatinib; first compound 0.03162 µM,0.658
same,relative viability,Palbociclib + Dasatinib; first compound 0.1 µM,0.809
same,relative viability,Palbociclib + Dasatinib; first compound 0.3162 µM,0.922
same,relative viability,Palbociclib + Dasatinib; first compound 1 µM,0.914
same,relative viability,Palbociclib + Phenformin; first compound 0.01 µM,0.623
same,relative viability,Palbociclib + Phenformin; first compound 0.03162 µM,0.592
same,relative viability,Palbociclib + Phenformin; first compound 0.1 µM,0.586
same,relative viability,Palbociclib + Phenformin; first compound 0.3162 µM,0.644
same,relative viability,Palbociclib + Phenformin; first compound 1 µM,1.19
same,relative viability,Palbociclib + AZD7762; first compound 0.01 µM,1.01
same,relative viability,Palbociclib + AZD7762; first compound 0.03162 µM,0.453
same,relative viability,Palbociclib + AZD7762; first compound 0.1 µM,0.934
same,relative viability,Palbociclib + AZD7762; first compound 0.3162 µM,0.843
same,relative viability,Palbociclib + AZD7762; first compound 1 µM,0.814
same,relative viability,Palbociclib + Pemetrexed; first compound 0.01 µM,1.2
same,relative viability,Palbociclib + Pemetrexed; first compound 0.03162 µM,0.504
same,relative viability,Palbociclib + Pemetrexed; first compound 0.1 µM,0.99
same,relative viability,Palbociclib + Pemetrexed; first compound 0.3162 µM,1.02
same,relative viability,Palbociclib + Pemetrexed; first compound 1 µM,0.932
same,relative viability,Palbociclib + Decitabine; first compound 0.01 µM,0.749
same,relative viability,Palbociclib + Decitabine; first compound 0.03162 µM,0.646
same,relative viability,Palbociclib + Decitabine; first compound 0.1 µM,0.635
same,relative viability,Palbociclib + Decitabine; first compound 0.3162 µM,0.736
same,relative viability,Palbociclib + Decitabine; first compound 1 µM,0.709
same,relative viability,Palbociclib + Vorinostat; first compound 0.01 µM,0.912
same,relative viability,Palbociclib + Vorinostat; first compound 0.03162 µM,0.536
same,relative viability,Palbociclib + Vorinostat; first compound 0.1 µM,0.906
same,relative viability,Palbociclib + Vorinostat; first compound 0.3162 µM,1.03
same,relative viability,Palbociclib + Vorinostat; first compound 1 µM,0.802
same,relative viability,Palbociclib + Olaparib; first compound 0.01 µM,0.642
same,relative viability,Palbociclib + Olaparib; first compound 0.03162 µM,0.612
same,relative viability,Palbociclib + Olaparib; first compound 0.1 µM,0.689
same,relative viability,Palbociclib + Olaparib; first compound 0.3162 µM,0.678
same,relative viability,Palbociclib + Olaparib; first compound 1 µM,0.616
NCI-H1623,relative viability,Palbociclib; 0.01 µM,1.16
same,relative viability,Palbociclib; 0.03162 µM,0.885
same,relative viability,Palbociclib; 0.1 µM,0.918
same,relative viability,Palbociclib; 0.3162 µM,0.951
same,relative viability,Palbociclib; 1 µM,0.686
same,relative viability,Palbociclib + Luminespib; first compound 0.01 µM,0.496
same,relative viability,Palbociclib + Luminespib; first compound 0.03162 µM,0.473
same,relative viability,Palbociclib + Luminespib; first compound 0.1 µM,0.587
same,relative viability,Palbociclib + Luminespib; first compound 0.3162 µM,0.463
same,relative viability,Palbociclib + Luminespib; first compound 1 µM,0.463
same,relative viability,Palbociclib + Foretinib; first compound 0.01 µM,0.97
same,relative viability,Palbociclib + Foretinib; first compound 0.03162 µM,0.741
same,relative viability,Palbociclib + Foretinib; first compound 0.1 µM,0.867
same,relative viability,Palbociclib + Foretinib; first compound 0.3162 µM,0.994
same,relative viability,Palbociclib + Foretinib; first compound 1 µM,0.64
same,relative viability,Palbociclib + OSI-027; first compound 0.01 µM,0.488
same,relative viability,Palbociclib + OSI-027; first compound 0.03162 µM,0.512
same,relative viability,Palbociclib + OSI-027; first compound 0.1 µM,0.448
same,relative viability,Palbociclib + OSI-027; first compound 0.3162 µM,0.398
same,relative viability,Palbociclib + OSI-027; first compound 1 µM,0.364
same,relative viability,Palbociclib + Tozasertib; first compound 0.01 µM,0.481
same,relative viability,Palbociclib + Tozasertib; first compound 0.03162 µM,0.48
same,relative viability,Palbociclib + Tozasertib; first compound 0.1 µM,0.476
same,relative viability,Palbociclib + Tozasertib; first compound 0.3162 µM,0.417
same,relative viability,Palbociclib + Tozasertib; first compound 1 µM,0.37
same,relative viability,Palbociclib + Dasatinib; first compound 0.01 µM,0.551
same,relative viability,Palbociclib + Dasatinib; first compound 0.03162 µM,0.473
same,relative viability,Palbociclib + Dasatinib; first compound 0.1 µM,0.517
same,relative viability,Palbociclib + Dasatinib; first compound 0.3162 µM,0.546
same,relative viability,Palbociclib + Dasatinib; first compound 1 µM,0.453
same,relative viability,Palbociclib + Phenformin; first compound 0.01 µM,0.602
same,relative viability,Palbociclib + Phenformin; first compound 0.03162 µM,0.534
same,relative viability,Palbociclib + Phenformin; first compound 0.1 µM,0.628
same,relative viability,Palbociclib + Phenformin; first compound 0.3162 µM,0.615
same,relative viability,Palbociclib + Phenformin; first compound 1 µM,0.496
